Measurements published in patent US20220370470A1 (WisTa Laboratories Ltd., priority 2019, published 2022).
Structures can show the parent of a compound that is named as a salt.

Legend:
[1] = system: ACh levels in the hippocampus; assay: Hippocampal ACh levels with scopolamine blocking M2/M4 negative feedback receptors; type: in vivo, wild type mice
synaptophysin = assay: Immunohistochemistry of synaptophysin, wild-type mice; type: in vivo
Protocol: FIG. 1. Treatment effects of LMTM alone or following chronic pretreatment with rivastigmine in wild-type mice on hippocampal levels of acetylcholine (A) or synaptophysin levels measured immunohistochemically as the mean in hippocampus, visual cortex, diagonal band and septum (B). (**, p<0.01; ***, p<0.001).
(§1) Wild-type and L1 mice (n=7-16 for each group) were pre-treated with rivastigmine (0.1 or 0.5 mg/kg/day) or memantine (2 or 20 mg/kg/day) or vehicle for 5 weeks by gavage. For the following 6 weeks, LMTM (5 and 15 mg/kg) or vehicle were added to this daily treatment regime, also by gavage. Animals were tested behaviourly during weeks 10 and 11 using a problem solving task in the open field water maze and then sacrificed for immunohistochemical and other tissue analyses.
(§2) Translating doses from mice to humans requires consideration of a number of factors. […] The higher dose of 15 mg/kg/day is generally required for LMTM to be fully effective in the L1 mouse model (Melis et al., 2015a). […] Tissue sectioned for immunohistochemistry was labelled with antibody and processed using Image J to determine protein expression densitometrically. Data are presented as Z-score transformations without units.

wild-type mice = assay: Behaviour, problem solving task in the open field water maze, wild-type mice; type: in vivo; conditions: LMTM 5 or 15 mg/kg/day alone or following chronic rivastigmine 0.1 or 0.5 mg/kg/day, approximate rounded percentages
Protocol: as §1

[2] = system: SNARE complex proteins (SNAP25, syntaxin and VAMP2); assay: Immunohistochemistry of SNARE complex proteins, wild-type mice; type: in vivo; design: key: ‘—’ indicates no effect; conditions: LMTM 5 or 15 mg/kg/day alone or following chronic rivastigmine 0.1 or 0.5 mg/kg/day, approximate rounded percentages
Protocol: as §1, §2

α-synuclein = assay: Immunohistochemistry of α-synuclein, wild-type mice; type: in vivo; design: key: ‘—’ indicates no effect; conditions: LMTM 5 or 15 mg/kg/day alone or following chronic rivastigmine 0.1 or 0.5 mg/kg/day, approximate rounded percentages
Protocol: as §1, §2

mitochondrial complex IV = assay: Mitochondrial complex IV activity, wild-type mice; type: in vivo; conditions: LMTM 5 or 15 mg/kg/day alone or following chronic rivastigmine 0.1 or 0.5 mg/kg/day, approximate rounded percentages
Protocol: as §1

[3] = system: acetylcholine (ACh) levels in hippocampus; assay: ACh levels in hippocampus, microdialysis probe and HPLC, wild-type mice; type: in vivo
Protocol: For measurement of acetylcholine (ACh) levels in hippocampus, animals (wild-type or L1) were treated with LMTM (5 mg/kg/day for 2 weeks) after prior treatment for 2 weeks with or without rivastigmine (0.5 mg/kg/day). Rivastigmine was administered subcutaneously with an Alzet minipump whereas LMTM was administered by oral gavage. Levels of ACh were measured in hippocampus using an implanted microdialysis probe and HPLC analysis of the extracellular fluid.
Data are presented as group averages and standard errors of mean and were analysed using parametric statistics, with alpha set to 0.05.

Compound | increase in ACh levels in scopolamine experiments ([1]; wild type mice, scopolamine blocking M2/M4 negative feedback receptors, 100 nanomolar rivastigmine in perfusion fluid) | change in mean synaptophysin levels (synaptophysin; LMTM given against a background of prior treatment with rivastigmine) | increase in mean synaptophysin levels (synaptophysin; hippocampus, visual cortex, diagonal band and septum, LMTM treatment alone) [fold] | Behaviour (wild-type mice) | SNARE complex [2] | α-Synuclein (α-synuclein) | Mitochondrial complex IV (mitochondrial complex IV) | reduction in basal ACh levels in hippocampus ([3]; LMTM after prior treatment with rivastigmine (0.5 mg/kg/day)) [%] | increase in basal ACh levels in hippocampus ([3]; LMTM treatment alone (5 mg/kg/day for 2 weeks), significant) [fold] | rise in ACh levels ([1]; hippocampus, scopolamine 1 μM added to the perfusion fluid containing 100 nanomolar rivastigmine)
CN(C)c1ccc2c(c1)Sc1cc(N(C)C)ccc1N2 [LMTM, hydromethylthionine mesylate] | less than that seen with rivastigmine alone | statistically significant reduction of the same magnitude | 3 | not associated with improvement in spatial recognition memory and — | — | — | did not show any increase and — | 30 | 2 | 
CN1[C@@H]2C[C@@H](OC(=O)[C@H](CO)c3ccccc3)C[C@H]1[C@@H]1O[C@@H]12 [scopolamine, reference compound] |  |  |  |  |  |  |  |  |  | 3-5 fold
